Measured values as given in article PMC8289861 (Scientific Reports, 2021).

Assays:
Caco-2 cells [1] = test system: Caco-2 cells
[2] = test system: colon-derived human cells (NCM460 and HT-29MTX); settings: cited from earlier work
Caco-2 cells [3] = settings: cited from earlier work
[4] = cited from earlier work
[5] = design: method as in PMID 25283090; settings: in vivo studies; cited from earlier work
[6] = cited from earlier work; remark: listed apart in the source

O=[As]O[As]=O (stereo not shown) [As, arsenic oxide (As III)]
decrease in the permeability as measured by Papp (Caco-2 cells [1]): 7.5% | decrease of Papp values (Caco-2 cells [1]): 7.5% | decrease of Papp values [2]: 63% | Papp (Caco-2 cells [3]; at 2 h, concentration 67 μM): 4.6 ± 0.3 × 10^–6 cm/s

[CH3][Hg] [CH3Hg]
decrease in the cellular accumulation (Caco-2 cells [3]): up to 55%

CC(=O)[O-].CC(=O)[O-].[Cd+2] [Cd, cadmium acetate]
decrease in the permeability as measured by Papp (Caco-2 cells [1]): 6.3% | decrease of Papp values (Caco-2 cells [1]): 6.3% | Cd accumulated in the Caco-2 cells (Caco-2 cells [3]; Caco-2): 6-12% | lag time during which transport into the basolateral compartment was undetectable (Caco-2 cells [3]): about 60 min | reduction of ML in the basolateral chamber (Caco-2 cells [3]): 90%

[Cl][Cd][Cl] [CdCl2]
Cd taken up (retained in the cells and transferred through cells) by Caco-2 cells (Caco-2 cells [3]; Caco-2): 25%

O=S(=O)(O)CC(S)CS (stereo not shown) [DMPS, 2,3-dimercapto-1-propanesulfonic acid]
Properties: water solubility [4]: C3H8O3S3 M.wt; 188.289g/mol Water soluble

[Cl][Hg][Cl] [Hg, mercuric chloride]
decrease in the permeability as measured by Papp (Caco-2 cells [1]): 8.2% | decrease of Papp values (Caco-2 cells [1]): 7.9% | absorption in vivo [5]: < 15% | cell retention (Caco-2 cells [3]): 49–69% | cellular accumulation (Caco-2 cells [3]): 21–51% | transport to the basal compartment (Caco-2 cells [3]): 3–14% | transport to the basolateral side (Caco-2 cells [3]): 9–20%

CC(=O)[O-].CC(=O)[O-].[Pb+2] [Pb, lead acetate]
decrease in the permeability as measured by Papp (Caco-2 cells [1]): 7.9% | decrease of Papp values (Caco-2 cells [1]): 8.2% | absolute bioavailability ([6]; estimated from Pb concentration in blood): 2.7% | fish meal Pb found in kidney ([6]; kidney): 1.4% | fish meal Pb found in liver ([6]; liver): 0.9% | Pb absorbed (associated and transported by Caco-2 cells) (Caco-2 cells [3]; Caco-2): 30% | Pb moved through the single layer (Caco-2 cells [3]): 3% | Pb retained by the cells (Caco-2 cells [3]): approximately 27% | reduction of ML in the basolateral chamber (Caco-2 cells [3]): 50%
